These are literature values, as cited in patent publication US20180064146A1, “METHOD FOR THE SURFACE DECONTAMINATION OF PACKAGED SOLID FOOD” (priority 2015, published 2018).

One series has as its system Escherichia coli. Conditions: for MICs (in liquid form): agar dilution, oil in liquid form; for MIDs (as vapour): oil as vapour.
The test system of series [1] is strains of Arcobacter butzleri. Conditions: vapours; Arcobacter butzleri in cabbage leaf; to an undetectable level.

Take `CC(C)=CCCC(C)=CC=O` [Citral]: in the series on Escherichia coli, the “MICs (in liquid form)” value was 800 µg/mL and the “MIDs (as vapour)” value was 12.5 μg/cm^2. For the same compound, the microbial load reduction in series [1] is 7 log CFU/2 cm^2.

For the compound `C=C(C)[C@H]1CC=C(C)CC1` [Limonene], in the series on Escherichia coli, the “MICs (in liquid form)” value is 3200 µg/mL and the “MIDs (as vapour)” value is listed as 800 μg/cm^2.

Regarding `C=CC(C)(O)CCC=C(C)C` (centres unmarked) [Linalool], in the series on Escherichia coli, the “MICs (in liquid form)” value is 3200 µg/mL and the “MIDs (as vapour)” value is reported as 50 μg/cm^2. Besides, in series [1], the microbial load reduction is 7 log CFU/2 cm^2.
